# Earlier results as cited in patent US20040234544A1, “Formulation containing (lyso-)phosphatidylserine for the prevention and treatment of stress states in warm blooded animals” (priority 2001, published 2004).
# Read-outs that look alike come from different tables or passages of the source.
# Columns and labels:
# [1] = tested on: persons under 40 years; conditions: persons under 40 years and persons whose brain function was average for their age
# [2] = tested on: young adults; conditions: 300 mg PS per day
# [3] = tested on: rats
# [4] = tested on: trained runners; conditions: 300 or 600 mg PS per day over 15 days
substance,measurement,setting,value
phosphatidylserine,improvements under PS supplementation,[1],no improvements were observed
same,mood,[2],positive effect
same,pulse rate,[2],positive effect
same,subjective stress sensitivity,[2],positive effect
same,effect in stress-induced behaviour (body temperature),[3]; old rats,normalization of body temperature
same,effect in lesions of the stomach wall,[3]; older rats,positive effect
same,effect in lesions of the stomach wall,[3]; young rats,this effect was not observed
same,effect against muscle damage,[4],protective effect against muscle damage
